Measured values taken from patent US20120122981A1, “Biomarkers Related to Insulin Resistance and Methods using the Same” (priority 2009, published 2012).

How the values were obtained:
[1] = pre-diabetic patients, DPP; cited from earlier work
[2] = Predicted and actual Rd before and after treatment with the insulin sensitizer muraglitozar; format: in vivo, human; conditions: 16 subjects, pre- vs post-treatment, plasma biomarkers 1-25
Experimental: C-Mur1, baseline prior to muraglitazar treatment; D-Mur2, following treatment with muraglitazar, a peroxisome proliferator-activated receptor agonist and an insulin sensitizer drug. […] Biomarkers 1-25 listed in Table 4 were measured in plasma samples collected from 16 subjects that were taking the insulin sensitizer muraglitozar. The samples were collected pre-(C-Mur—1) and post-treatment (D-Mur—2) with muraglitozar.

CN(C)C(=N)N=C(N)N [metformin]
reduction of the rate of progression to diabetes [1]: 38%

COc1ccc(OC(=O)N(CC(=O)O)Cc2ccc(OCCc3nc(-c4ccccc4)oc3C)cc2)cc1 [muraglitozar]
change in predicted Rd with treatment, in agreement with actual Rd by HI clamp [2]: increased
